The target in assay [1] is T1, α1 -adrenergic receptor (Oryctolagus cuniculus, UniProt O02824).
T1 construct: Transverse smooth muscle strips were prepared; from tissue; host or cells: rabbit prostate, transverse smooth muscle strips
T1 sequence (O02824 1-466): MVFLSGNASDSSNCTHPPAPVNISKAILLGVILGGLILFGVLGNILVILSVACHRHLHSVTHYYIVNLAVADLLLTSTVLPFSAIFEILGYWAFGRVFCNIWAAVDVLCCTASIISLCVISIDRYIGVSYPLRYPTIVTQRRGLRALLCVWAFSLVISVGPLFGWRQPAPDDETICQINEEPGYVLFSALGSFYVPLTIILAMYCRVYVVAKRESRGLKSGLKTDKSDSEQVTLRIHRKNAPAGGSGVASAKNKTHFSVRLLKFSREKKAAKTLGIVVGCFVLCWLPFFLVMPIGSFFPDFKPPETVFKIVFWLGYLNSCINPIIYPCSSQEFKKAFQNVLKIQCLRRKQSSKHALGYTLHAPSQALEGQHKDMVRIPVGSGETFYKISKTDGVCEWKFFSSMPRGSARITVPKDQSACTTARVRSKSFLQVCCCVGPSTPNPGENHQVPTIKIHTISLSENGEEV
The assay can be described thus: α1-Adrenergic receptor blocking action, rabbit urethra smooth muscle strips (phenylephrine contraction). It counts as cell-based. On the procedure: (§1) Rabbits were sacrificed by exsanguination, and in each rabbit the urethra and prostate were isolated from the lower urinary tract system. Transverse smooth muscle strips were prepared. Each strip was suspended in a 37° C. Krebs-solution-containing organ bath which had been bubbled with 95% O2 and 5% CO2. Isometric contraction under a resting tension of 1 g was recorded with an isometric transducer (TB-651T, Nihon Koden) on a thermal pen-type recorder (RECTI HORIZ 8K, Nihon Denki San'ei).
(§2) The strip was allowed to stand for equilibration for 60 minutes, and contractions were elicited by a certain concentration of phenylephrine (10^-5 M). The organ bath was washed with a nutrient liquid. Thereafter, the above procedure was repeated at 60-minute intervals until constant contraction responses were obtained. Subsequently, dose-response curves were obtained by administration of phenylephrine in an accumulative manner (10^-7 to 3×10^-4 M). After the strips were washed and then rested for 60 minutes, the strips were treated with a test drug solution (i.e., DMSO solution containing the test drug; 10^-7 to 10^-5 M) for 30 minutes, to thereby obtain dose-response curves for phenylephrine.
(§3) The composition of the nutrient solution was as follows.
(§4) In all cases, 10^-5 M propranolol (β-adrenaline antagonist) was administered 10 minutes before administration of the drug.
(§5) The efficacy of each test drug in terms of α1 -adrenergic receptor blocking action was assessed from calculation of pA2 (inverse of logarithm of the mole concentration of antagonist which requires, in the presence of an antagonist, twice the concentration of an agonist that provides an effect equal to that obtained in the absence of an antagonist).

Assay [2] has as its target Testosterone 5α-reductase. As to the kind of experiment: Testosterone 5α-reductase inhibitory action, nuclear fraction of rat prostates. Type of assay: biochemical, Wistar rat. Conditions: rat prostate nuclear fraction, [4-^14 C]-testosterone, NADPH, pH 7.0, 60 minutes at 37° C. On the procedure: Male Wistar rats (age: 9-10 weeks old) were anesthetized with ether. The abdomen of each rat was median-cut to thereby remove the prostate. The isolated prostates were weighed and homogenized in 3 tissue volumes of 50 mM Tris-HCl buffer (pH 7.2) containing 0.25 M sucrose. The homogenates were filtered with gauze and centrifuged at 3,000 rpm for 10 minutes. The pellets were resuspended in a buffer as described above and the resultant suspension was used as a nuclear fraction.
The nuclear fraction of the prostates (0.1 ml), 5 mM NADPH (0.1 ml), and a test drug solution (DMSO solution containing the test drug; 0.01 ml) were added to 50 mM Tris-HCl buffer (pH 7.0; 0.78 ml). Reaction was initiated by addition of 150 μM [4-^14 C]-testosterone (0.01 ml) to the resultant solution, and the reaction mixture was incubated for 60 minutes at 37° C. After incubation, reaction was stopped by addition of ethyl acetate (4 ml), and simultaneously, the reaction mixture was subjected to extraction. The extract (3 ml) was brought to dryness through evaporation with nitrogen gas. Ethyl acetate (40 μl) was added thereto, and a 10 μl portion was applied to a silica gel thin layer plate for development with a solvent mixture of ethyl acetate and cyclohexane (1:1). After development, the plate was subjected to autoradiography, and spots attributed to testosterone, dihydrotestosterone, and other metabolites were collected by scraping. Radioactivity of the spots was counted in a liquid scintillation counter. From the total radioactivity and the radioactivity of 5α-metabolites, reaction ratio was obtained. IC50 of the compound, which represents the inhibitory activity of the test compound, was calculated from the reaction ratio of the control solvent and the reaction ratio obtained when the compound was added.

The target of assay [3] is T1, α1 -adrenergic receptor. The assay can be described thus: α1-Adrenergic receptor blocking action, rabbit prostate smooth muscle strips (phenylephrine contraction). Type of assay: cell-based. How it is done:
as §1, §2, §3, §4, §5

Setting [4] is: rabbit urethra strips, phenylephrine 10^-7 to 3×10^-4 M, test drug 30 minutes, 10^-5 M propranolol present, read-out: Urethra (pA2) (converted).
Where [5] appears, read: rabbit prostate strips, phenylephrine 10^-7 to 3×10^-4 M, test drug 30 minutes, 10^-5 M propranolol present, read-out: Prostate (pA2) (converted).

Counter-ions that a name gives are not always drawn.

On to `CCc1ccc(CNc2ccc(C(=O)c3cn(CCCC(=O)O)c4ccccc34)cc2OCCCN2CCN(c3ccccc3OC)CC2)cc1` [Example 1, 4-{3-{4-(4-Ethylphenyl)methylamino-3-{3-[4-(2-methoxyphenyl)piperazin-1-yl]propoxy}benzoyl}indol-1-yl}butanoic acid hydrochloride], for which the Kb on α1 -adrenergic receptor [1] was 302 nM; on α1 -adrenergic receptor [3], 224 nM. Moreover, in assay [2], the IC50 came out at 0.7 nM.
As to `COc1ccccc1N1CCN(CCCOc2cc(C(=O)c3cn(CCCC(=O)O)c4ccccc34)ccc2NCc2ccccc2)CC1` [Example 5], the Kb at α1 -adrenergic receptor [1] (setting [4]) was 174 nM; at α1 -adrenergic receptor [3] (setting [5]), 53.7 nM.
Take `COc1ccccc1N1CCN(CCCOc2cc(C(=O)c3cn(CCCC(=O)O)c4ccccc34)ccc2NCc2ccc(C)cc2)CC1` [Example 7]: the Kb at α1 -adrenergic receptor [1] (setting [4]) was 316 nM; at α1 -adrenergic receptor [3] (setting [5]) it was 95.5 nM. Further, it took 0.86 nM to reach half-maximal inhibition in assay [2] (IC50).
With `CCOc1ccccc1N1CCN(CCCOc2cc(C(=O)c3cn(CCCC(=O)O)c4ccccc34)ccc2NCc2ccc(C)cc2)CC1` [Example 8, 4-{3-{4-[(4-Methylphenyl)methylamino]-3-{3-[4-(2-ethoxyphenyl)piperazin-1-yl]propoxy}benzoyl}indol-1-yl}butanoic acid], half-maximal inhibition in assay [2] (IC50) was put at 1 nM.
With `CCOc1ccccc1N1CCN(CCCOc2cc(C(=O)c3cn(CCCC(=O)O)c4ccccc34)ccc2NCc2ccc(CC)cc2)CC1` [Example 10, 4-{3-{3-{3-[4-(2-Ethoxyphenyl)piperazin-1-yl]propoxy}-4-[(4-ethylphenyl)methylamino]benzoyl}indol-1-yl}butanoic acid], the concentration for half-maximal inhibition (IC50) in assay [2] is 0.47 nM.

By IC50 is commonly meant the midpoint of a concentration-inhibition curve. A high value points to weaker potency.

For the origin of these results see patent US6242449A, “3-benzoylindole derivatives and drugs containing the same” (Zeria Pharmaceutical Co., Ltd., priority 1997, dated 2001).
